The numbers were not newly measured in patent US9114602B2, “Process for making lithographic printing plate” (FUJIFILM Corporation, priority 2011, dated 2015), which cites them from elsewhere.

For the series the following is noted: at 20° C.

`CCC(C)CO` (centres unmarked) [2-methyl-1-butanol]: the solubility in water was 3.0 g/100 mL.

`CCCCCCOCCO` [Ethylene glycol mono-n-hexyl ether, reference compound]: the solubility in water is given as 1.0 g/100 mL.

Consider `CC(C)C(C)O` (centres unmarked) [3-methyl-2-butanol], for which the solubility in water is recorded as 5.6 g/100 mL.

For `CC(C)(C)CO` [neopentyl alcohol], the solubility in water is 3.5 g/100 mL.

With `CC(C)CC(C)O` (centres unmarked) [4-methyl-2-pentanol], the solubility in water is given as 2.0 g/100 mL.

Take `CCC(=O)CC` [diethyl ketone]: the solubility in water is given as 1.7 g/100 mL.

For `CC(=O)OC(C)C` [isopropyl acetate], the solubility in water is on record as 4.3 g/100 mL.

As for `CCC(O)CC` [Example 3-pentanol, 3-pentanol], the solubility in water is recorded as 5.2 g/100 mL.

Turning to `OCCOc1ccccc1` [ethylene glycol monophenyl ether], the solubility in water is 2.7 g/100 mL.

On to `CCCCCO` [Example 1-pentanol, 1-pentanol], for which the solubility in water was 2.7 g/100 mL.

As to `CC(C)CCO` [3-methyl-1-butanol], the solubility in water is 2.7 g/100 mL.

For `CCCC(C)O` (centres unmarked) [Example 2-pentanol, 2-pentanol], the solubility in water is reported as 4.5 g/100 mL.

Consider `CCCCOCCOCCOC(C)=O` [diethylene glycol monobutyl ether acetate], for which the solubility in water is 6.5 g/100 mL.

On to `CCCC(C)=O` [Example 2-pentanone, 2-pentanone], for which the solubility in water was 4.0 g/100 mL.

In the case of `CCCCOCC(C)O` (centres unmarked) [propylene glycol mono-n-butyl ether], the solubility in water is listed as 4.4 g/100 mL.

Regarding `CCCOC(C)=O` [propyl acetate], the solubility in water is recorded as 1.6 g/100 mL.

In the case of `OCc1ccccc1` [benzyl alcohol], the solubility in water is recorded as 4.0 g/100 mL.
